Laboratory results as given in ChEMBL document CHEMBL1201862, “PubChem BioAssay data set” (2004).
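Five compound concentrations were applied to cells in 96-well plates for 48 hours; endpoints were derived by simple linear interpolation of the resulting dose-response curve. GI50: concentration for 50% inhibition of growth.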 Activity calls are given as the source filed them. Cut-off read from the data, not from the text of the source: active = GI50 up to about 1.1 µM and inactive = higher.

Assays:
Test in all cases: NCI anticancer screen, dose series, 48 h
[1] = tested on: M19-MEL
[2] = tested on: SNB-78
[3] = tested on: LXFL 529
[4] = tested on: KM-20L2
[5] = tested on: RXF 631
[6] = tested on: DMS-273
[7] = tested on: DLD-1
[8] = tested on: XF498
[9] = tested on: DMS-114

Compound	GI50 [1]	GI50 [2]	GI50 [3]	GI50 [4]	GI50 [5]	GI50 [6]	GI50 [7]	GI50 [8]	GI50 [9]
N#Cc1c(-c2ccco2)cc(-c2ccccc2)nc1O	> 100 µM (inactive)	> 100 µM (inactive)	> 100 µM (inactive)	> 100 µM (inactive)	> 100 µM (inactive)	> 100 µM (inactive)	> 100 µM (inactive)	–	–
CN/N=C(\C)C(CN1CCCCC1)C(C1=C(O)c2ccccc2OC1)c1ccccc1 (stereo not given)	> 100 µM (inactive)	> 100 µM (inactive)	> 100 µM (inactive)	> 100 µM (inactive)	> 100 µM (inactive)	> 100 µM (inactive)	–	> 100 µM (inactive)	79.3 µM (inactive)
CC1CCP(=O)(c2ccccc2)c2ccccc21 (stereo not given)	24.4 µM (inactive)	> 100 µM (inactive)	43.6 µM (inactive)	> 100 µM (inactive)	–	28.2 µM (inactive)	46.8 µM (inactive)	< 0.01 µM (active)	38.4 µM (inactive)
COC(=O)C1=C(C(=O)OC)SC(=CC#CC=C2SC(C(=O)OC)=C(C(=O)OC)S2)S1	40.5 µM (inactive)	12.2 µM (inactive)	14.3 µM (inactive)	11.9 µM (inactive)	–	10.5 µM (inactive)	14.1 µM (inactive)	4.53 µM (inactive)	35.2 µM (inactive)
CNC(=O)CN(CC(=O)NC)C(=O)NC	> 100 µM (inactive)	> 100 µM (inactive)	> 100 µM (inactive)	> 100 µM (inactive)	–	> 100 µM (inactive)	> 100 µM (inactive)	> 100 µM (inactive)	–
Cc1cc2c(cc1Br)C1(C)CCC(C)C1(C)O2 (stereo not given)	25.3 µM (inactive)	24 µM (inactive)	57.7 µM (inactive)	32.3 µM (inactive)	–	19.6 µM (inactive)	48.8 µM (inactive)	22.5 µM (inactive)	22 µM (inactive)
O=C1c2ccoc2C(=O)c2oc(=O)ccc21	1.56 µM (inactive)	12.2 µM (inactive)	6.75 µM (inactive)	> 46.1 µM (inactive)	–	16.8 µM (inactive)	18.7 µM (inactive)	25.3 µM (inactive)	2.05 µM (inactive)
N/N=C1\C(=O)N(CCc2ccccc2)C(=O)C1C(=O)NCCc1ccccc1 (stereo not given)	> 100 µM (inactive)	> 100 µM (inactive)	> 100 µM (inactive)	> 100 µM (inactive)	> 100 µM (inactive)	> 100 µM (inactive)	> 100 µM (inactive)	> 100 µM (inactive)	–
N#CC1(C#N)C2(c3ccccc3)OC(c3ccccc3)(c3cc4ccccc4cc32)C1(C#N)C#N	–	–	1.62 µM (inactive)	13.3 µM (inactive)	–	16.3 µM (inactive)	8.73 µM (inactive)	–	7.89 µM (inactive)
CC(C)OP(=O)(NC(=S)c1ccccc1)OC(C)C	> 100 µM (inactive)	> 100 µM (inactive)	57.7 µM (inactive)	> 100 µM (inactive)	–	> 100 µM (inactive)	> 100 µM (inactive)	> 100 µM (inactive)	70.8 µM (inactive)
CN1C(=O)n2c(nc3ccccc32)C(N=[N+]=[N-])(N=[N+]=[N-])C1=O (stereo not given)	> 100 µM (inactive)	> 100 µM (inactive)	> 100 µM (inactive)	> 100 µM (inactive)	> 100 µM (inactive)	> 100 µM (inactive)	> 100 µM (inactive)	> 100 µM (inactive)	> 100 µM (inactive)
COc1cc2c(cc1OC)C(Cl)C(c1ccc(Br)cc1)=C2Cl (stereo not given)	16.4 µM (inactive)	13.5 µM (inactive)	–	18.5 µM (inactive)	–	14.3 µM (inactive)	12.7 µM (inactive)	–	9.06 µM (inactive)
CC(C)C(=O)NS(=O)(=O)c1ccccc1	> 100 µM (inactive)	> 100 µM (inactive)	> 100 µM (inactive)	> 100 µM (inactive)	> 100 µM (inactive)	–	> 100 µM (inactive)	> 100 µM (inactive)	> 100 µM (inactive)
CCCCCCC(=O)C/C(CCC(=O)N(Cc1ccccc1)Cc1ccccc1)=N\Nc1ccc([N+](=O)[O-])cc1[N+](=O)[O-]	55.7 µM (inactive)	> 100 µM (inactive)	31 µM (inactive)	56.8 µM (inactive)	–	55.8 µM (inactive)	42 µM (inactive)	–	17 µM (inactive)
N#C/N=C(/NCCc1c[nH]c2ccccc12)Oc1ccccc1	94.8 µM (inactive)	98.9 µM (inactive)	72.8 µM (inactive)	22.5 µM (inactive)	–	> 100 µM (inactive)	> 100 µM (inactive)	21.1 µM (inactive)	40.9 µM (inactive)
COC(=O)c1cc(O)ccc1NC(=O)c1ccc(O)cc1	> 100 µM (inactive)	> 100 µM (inactive)	> 100 µM (inactive)	> 100 µM (inactive)	> 100 µM (inactive)	–	> 100 µM (inactive)	> 100 µM (inactive)	> 100 µM (inactive)
COc1c2nc(CCl)[nH]c(=O)c2c(OC)c2nc(CCl)[nH]c(=O)c12	> 100 µM (inactive)	> 100 µM (inactive)	> 100 µM (inactive)	> 100 µM (inactive)	–	> 100 µM (inactive)	> 100 µM (inactive)	> 100 µM (inactive)	> 100 µM (inactive)
COc1ccc2c3c(coc13)C(CCC(=O)O)CC2 (stereo not given)	> 100 µM (inactive)	> 100 µM (inactive)	> 100 µM (inactive)	> 100 µM (inactive)	> 100 µM (inactive)	> 100 µM (inactive)	> 100 µM (inactive)	48.3 µM (inactive)	> 100 µM (inactive)
CC(C)c1cccc(C(C)C)c1NC(=S)NN=C1C=C(C(C)(C)C)C(=O)C(C(C)(C)C)=C1	–	–	32.3 µM (inactive)	24.2 µM (inactive)	9.95 µM (inactive)	29.9 µM (inactive)	36.4 µM (inactive)	22.8 µM (inactive)	7.26 µM (inactive)
COc1cc(Cn2c(=S)ss/c2=N\C(=S)N(C)C)cc(OC)c1OC	4.11 µM (inactive)	> 100 µM (inactive)	6.37 µM (inactive)	4.68 µM (inactive)	4.25 µM (inactive)	4.41 µM (inactive)	6.31 µM (inactive)	–	2.93 µM (inactive)
COc1cc2c(cc1OC)-c1cc3cc(OC)c(OC)cc3n1CC2	> 100 µM (inactive)	36.8 µM (inactive)	54.8 µM (inactive)	21.6 µM (inactive)	–	–	58.2 µM (inactive)	18.9 µM (inactive)	72.3 µM (inactive)
